# Results as given in patent publication EP0361348A1, “Non-steroidal pharmaceutical composition and process for producing the same” (NIPPON HYPOX LABORATORIES INCORPORATED, priority 1988, dated 1990).
# Tested on: male SD rats
# Test: Anti-inflammatory action: carrageenin-induced sole swelling (plethysmometer)
# Format: in vivo
# Settings: 1 mg/kg in terms of Piroxicam, oral; for Swelling percent: 1 hour before carrageenin, mean, n=5
# Experimental: As test animals, there were used male SD rats each weighing about 200 g. As a test sample, there was used a suspension of each of the anti-inflammatory agent compositions No. 1-4 obtained in Examples 1-4 above, in a gum arabic solution (the concentration of Piroxicam in the suspension was 1%). This test sample was orally administered to each rat in an amount of 1 mg/kg in terms of Piroxicam. One hour after the administration of the test sample, an inflammatory agent (0.1 ml of a physiological saline solution containing 1% of carrageenin) was subcutaneously injected to each rat at the sole. Then, the sole volume was measured with the lapse of time using a plethysmometer, and swelling percent was calculated from the following formula. Swelling percent (%) = [(Ps - Po)/Po] x 100 where Po = sole volume before injection of carrageenin Ps = sole volume at a certain time after the injection of carrageenin For comparison, Piroxicam alone was orally administered in an amount of 1 mg/kg, in the same manner as above, and the change of swelling percent with time was examined.
smiles,measurement,setting,value
"CN1C(C(=O)Nc2ccccn2)=C(O)c2ccccc2S1(=O)=O [Piroxicam alone, Piroxicam]",Swelling percent,0.5 hour after carrageenin injection,26.79%
same,Swelling percent,1 hour after carrageenin injection,39.51%
same,Swelling percent,1.5 hours after carrageenin injection,46.71%
same,Swelling percent,2 hours after carrageenin injection,45.72%
same,Swelling percent,3 hours after carrageenin injection,43.77%
same,Swelling percent,4 hours after carrageenin injection,44.33%
same,anti-inflammatory action,"result in words, from Table 1",significant anti-inflammatory action
